Source: patent US20150299188A1, “HETEROCYCLIC COMPOUND” (priority 2012, published 2015)

Tested on: FLAP (5-lipoxygenase activating protein)
Experiment: In vitro binding test: displacement of [3H]-7-chloro-3-(5-((3-fluoropyridin-2-yl)methoxy)-2-methylphenyl)-3,4-dihydroquinazolin-2(1H)-one from Sf9 microsome fractions
Set-up: species or system human and mouse
Details: Sf9 microsome fractions expressing FLAP; 100% = radioligand binding with 10 μM sodium 3-(3-(tert-butylsulfanyl)-1-(4-chlorobenzyl)-5-isopropyl-1H-indol-2-yl)-2,2-dimethylpropanoate, 0% = DMSO; test compound concentration not given
Description: As an assay buffer, 100 mM Tris-HCl, pH 7.5, 140 mM NaCl, 2 mM EDTA, 0.5 mM dithiothreitol, 5% glycerol, 0.05% Tween20 was used. Sf9 microsome fractions expressing human and mouse FLAPs were dispensed by 50 μL to a 96-well plate at 2 μg/mL. Furthermore, a test compound (25 μL) diluted 4-fold of the final concentration with the assay buffer was added and mixed therewith, and the mixture was incubated at room temperature for 10 min. Furthermore, 120 nM [^3H]-7-chloro-3-(5-((3-fluoropyridin-2-yl)methoxy)-2-methylphenyl)-3,4-dihydroquinazolin-2(1H)-one was added by 25 μL, and mixed therewith, and the mixture was incubated at room temperature for 60 min. Thereafter, the cells were transferred to a 96-well GF/B Unifilter plate with a FilterMate cell harvester, and washed 3 times with a wash buffer (100 mM Tris-HCl pH 7.5, 0.05% Tween20, 200 μL) cooled to 4° C. The GF/B Unifilter plate was dried at 37° C., Microscint 0 was added and measured by TopCount NXT (PerkinElmer). As for the inhibitory activity, the inhibitory rate was calculated wherein the [^3H]-7-chloro-3-(5-((3-fluoropyridin-2-yl)methoxy)-2-methylphenyl)-3,4-dihydroquinazolin-2(1H)-one binding amount in the presence of 10 μM sodium 3-(3-(tert-butylsulfanyl)-1-(4-chlorobenzyl)-5-isopropyl-1H-indol-2-yl)-2,2-dimethylpropanoate was 100%, and the [^3H]-7-chloro-3-(5-((3-fluoropyridin-2-yl)methoxy)-2-methylphenyl)-3,4-dihydroquinazolin-2(1H)-one binding amount in the presence of DMSO was 0%.

Structure (SMILES)	inhibitory rate (%)
Cc1ccc(OCc2c(F)cccc2F)cc1N1Cc2cnn(C)c2NC1=O [Example 311, 5-(5-((2,6-difluorobenzyl)oxy)-2-methylphenyl)-1-methyl-1,4,5,7-tetrahydro-6H-pyrazolo[3,4-d]pyrimidin-6-one]	69%
O=C1Nc2nccc(C(F)(F)F)c2CN1c1cc2c(cc1Cl)CCC(c1ncccc1F)O2 (stereo not shown) [Example 57, 3-(6-chloro-2-(3-fluoropyridin-2-yl)-3,4-dihydro-2H-chromen-7-yl)-5-(trifluoromethyl)-3,4-dihydropyrido[2,3-d]pyrimidin-2(1H)-one]	105%
O=C1Nc2ccnc(Cl)c2CN1c1cc2c(cc1Cl)CC[C@@H](c1ncccc1F)O2 [Example 2, 5-chloro-3-((2S)-6-chloro-2-(3-fluoropyridin-2-yl)-3,4-dihydro-2H-chromen-7-yl)-3,4-dihydropyrido[4,3-d]pyrimidin-2(1H)-one]	102%
Cc1ccc(OCc2ncccc2F)cc1N1Cc2c(Cl)cccc2N(Cc2ccccc2C(=O)O)C1=O [Example 296, 2-((5-chloro-3-(5-((3-fluoropyridin-2-yl)methoxy)-2-methylphenyl)-2-oxo-3,4-dihydroquinazolin-1(2H)-yl)methyl)benzoic acid]	95%
COC(=O)c1ccc2c(c1)NC(=O)N(c1cc(OCc3csc(C)n3)ccc1C)C2 [Example 211, methyl 3-(2-methyl-5-((2-methyl-1,3-thiazol-4-yl)methoxy)phenyl)-2-oxo-1,2,3,4-tetrahydroquinazoline-7-carboxylate]	86%
Cc1ccc(OCc2ncccc2F)cc1-n1c(=O)[nH]c2ccncc2c1=O [Example 369, 3-(5-((3-fluoropyridin-2-yl)methoxy)-2-methylphenyl)pyrido[4,3-d]pyrimidine-2,4(1H,3H)-dione]	106%
Cc1cc2c(cc1N1Cc3c(Cl)cnc(-c4c(C)noc4C)c3NC1=O)OC(c1ncccc1F)CC2 (single isomer, unassigned; (+)) [Example 12, (+)-5-chloro-8-(3,5-dimethyl-1,2-oxazol-4-yl)-3-(2-(3-fluoropyridin-2-yl)-6-methyl-3,4-dihydro-2H-chromen-7-yl)-3,4-dihydropyrido[3,4-d]pyrimidin-2(1H)-one]	99%
COc1nccc2c1CN(c1cc3c(cc1C)CCC(c1ncccc1F)O3)C(=O)N2 (stereo not shown) [Example 21, 3-(2-(3-fluoropyridin-2-yl)-6-methyl-3,4-dihydro-2H-chromen-7-yl)-5-methoxy-3,4-dihydropyrido[4,3-d]pyrimidin-2 (1H)-one]	103%
O=C1Nc2ccnc(Cl)c2CN1c1cc2c(cc1Cl)CCC(c1ncccc1F)O2 (racemic) [Example 1, 5-chloro-3-(6-chloro-2-(3-fluoropyridin-2-yl)-3,4-dihydro-2H-chromen-7-yl)-3,4-dihydropyrido[4,3-d]pyrimidin-2(1H)-one]	94%
O=C(NCC(F)F)c1cc2c(c(C3CC3)n1)CN(c1cc3c(cc1Cl)CCC(c1ncccc1F)O3)C(=O)N2 (stereo not shown) [Example 147, 3-(6-chloro-2-(3-fluoropyridin-2-yl)-3,4-dihydro-2H-chromen-7-yl)-5-cyclopropyl-N-(2,2-difluoroethyl)-2-oxo-1,2,3,4-tetrahydropyrido[4,3-d]pyrimidine-7-carboxamide]	104%
O=C(NCc1ccccn1)c1ccc(OCc2c(F)cccc2F)cc1N1Cc2ccccc2NC1=O [Example 192, 4-((2,6-difluorobenzyl)oxy)-2-(2-oxo-1,4-dihydroquinazolin-3(2H)-yl)-N-(pyridin-2-ylmethyl)benzamide]	51%
Cc1ccc(OCc2c(F)cccc2F)cc1-n1c(=O)[nH]c2nc(N3CCOCC3)sc2c1=O [Example 334, 6-(5-((2,6-difluorobenzyl)oxy)-2-methylphenyl)-2-(morpholin-4-yl)[1,3]thiazolo[4,5-d]pyrimidine-5,7(4H,6H)-dione]	93%
O=c1[nH]c2cccc(Cl)c2c(=O)n1-c1cc(OCc2ncccc2F)c(F)cc1Cl [Example 364, 5-chloro-3-(2-chloro-4-fluoro-5-((3-fluoropyridin-2-yl)methoxy)phenyl)quinazoline-2,4(1H,3H)-dione]	108%
CCCc1ccc(OCc2ncccc2F)cc1N1Cc2ccccc2NC1=O [Example 245, 3-(5-((3-fluoropyridin-2-yl)methoxy)-2-propylphenyl)-3,4-dihydroquinazolin-2(1H)-one]	99%
Cc1cc2c(cc1N1Cc3c(C4CC4)cnc(-c4cnn(C)c4)c3NC1=O)OC(c1ncccc1F)CC2 (stereo not shown) [Example 162, 5-cyclopropyl-3-(2-(3-fluoropyridin-2-yl)-6-methyl-3,4-dihydro-2H-chromen-7-yl)-8-(1-methyl-1H-pyrazol-4-yl)-3,4-dihydropyrido[3,4-d]pyrimidin-2(1H)-one]	95%
COC(=O)c1ccc2c(c1)NC(=O)N(c1cc(OCc3ncccc3F)ccc1C)C2 [Example 216, methyl 3-(5-((3-fluoropyridin-2-yl)methoxy)-2-methylphenyl)-2-oxo-1,2,3,4-tetrahydroquinazoline-7-carboxylate]	104%
COC(=O)c1ccc2c(c1)NC(=O)N(c1cc(OCc3ncc(C)s3)ccc1C)C2 [Example 241, methyl 3-(2-methyl-5-((5-methyl-1,3-thiazol-2-yl)methoxy)phenyl)-2-oxo-1,2,3,4-tetrahydroquinazoline-7-carboxylate]	94%
O=c1[nH]c2cc[nH]c2c(=O)n1-c1cccc(OCc2c(F)cccc2F)c1 [Example 325, 3-(3-((2,6-difluorobenzyl)oxy)phenyl)-1H-pyrrolo[3,2-d]pyrimidine-2,4(3H,5H)-dione]	65%
O=C1CCCN1c1cc2c(c(C3CC3)n1)CN(c1cc3c(cc1Cl)CCC(c1ncccc1F)O3)C(=O)N2 (stereo not shown) [Example 86, 3-(6-chloro-2-(3-fluoropyridin-2-yl)-3,4-dihydro-2H-chromen-7-yl)-5-cyclopropyl-7-(2-oxopyrrolidin-1-yl)-3,4-dihydropyrido[4,3-d]pyrimidin-2(1H)-one]	108%
Cc1ccc(OCc2c(F)cccc2F)cc1N1Cc2ccc(-c3noc(=O)[nH]3)cc2NC1=O [Example 208, 3-(5-((2,6-difluorobenzyl)oxy)-2-methylphenyl)-7-(5-oxo-4,5-dihydro-1,2,4-oxadiazol-3-yl)-3,4-dihydroquinazolin-2(1H)-one]	96%
Cc1ccc(OCc2ncccc2F)cc1N1Cc2ccc(C(=O)N3CCCC(O)C3)cc2NC1=O (stereo not shown) [Example 227, 3-(5-((3-fluoropyridin-2-yl)methoxy)-2-methylphenyl)-7-((3-hydroxypiperidin-1-yl)carbonyl)-3,4-dihydroquinazolin-2(1H)-one]	90%
O=C(NCC(F)(F)F)c1cc2c(c(C3CC3)n1)CN(c1cc3c(cc1Cl)CCC(c1ncccc1F)O3)C(=O)N2 (stereo not shown) [Example 149, 3-(6-chloro-2-(3-fluoropyridin-2-yl)-3,4-dihydro-2H-chromen-7-yl)-5-cyclopropyl-2-oxo-N-(2,2,2-trifluoroethyl)-1,2,3,4-tetrahydropyrido[4,3-d]pyrimidine-7-carboxamide]	107%
